Measurements reported in patent US20050282793A1, “Steroid prodrugs with androgenic action” (priority 2004, published 2005).
Read-outs that look alike come from different tables or passages of the source.

How the values were obtained:
Human Carboanhydrase I = Human Carboanhydrase I (Homo sapiens, UniProt P00915); assay: Carboanhydrase I inhibition (CO2 hydration); assay type: biochemical
Method: Carboanhydrases catalyze the CO2 hydration.
Test preparation: A constant CO2 stream is directed by a buffer that was mixed with carboanhydrase I. The time that is required to reduce the pH within defined limits is a measuring parameter. This parameter reflects the formation of H2CO3 in the medium. IC50 inhibiting values are determined by test substances being pipetted into the test preparation.

[1] = Determination of the erythrocyte/plasma distribution ratio; assay type: in vitro ADME; conditions: freshly obtained, heparinized blood
Method: Freshly obtained, heparinized blood is mixed with a defined amount of test substance. The concentration in the plasma obtained therefrom is measured. The erythrocyte/plasma distribution ratio is calculated from the measured concentration of the entire substance in plasma and the concentration that is used.

erythrocytes = assay: Binding to erythrocytes: displacement of estradiol-3-sulfamate from the erythrocyte bond (RBA); parameters: species or system human; conditions: for RBA in Erythrocytes: human blood, displacement of 14C-labeled estradiol sulfamate, estradiol-3-sulfamate = 100
Method: The SO2—NH2 group of the compounds according to the invention can result in a concentration in erythrocytes by binding to carboanhydrases. The displacement of estradiol-3-sulfamate from the erythrocyte bond by test substances is measured. Test preparation: human blood is mixed with a mixture that consists of ^14C-labeled and unlabeled estradiol sulfamate. The erythrocytes are saturated at the selected working point. The distribution in plasma/erythrocytes is 40:60. A second blood sample is mixed with a mixture that consists of ^14C-labeled estradiol sulfamate and unlabeled test substance. The relative binding affinity is calculated from the proportion of ^14C-labeled estradiol sulfamate in plasma: higher proportion=strong displacement of ^14C-estradiol sulfamate from the erythrocytes by the test substance=high binding affinity of the test substances to the erythrocytes.

[2] = test system: gonadally intact, adult, sexually mature rats; assay: Test (III), oral treatment over 6 weeks; assay type: in vivo, rat
Method: (§1) • Method: Adult male rats, of about 300 g of body weight, are castrated and treated orally over 7 days with MENT and compound 12 according to the invention. On the 8th day of the test, the animals are sacrificed, and the hormonal effects of the test substances are evaluated (growth of the accessory sex glands, reduction of the gonadotropic hormones in plasma, parameters of hepatic actions: effects on HDL lipoproteins, determination of MENT in the plasma). Test (III) on Gonadally Intact Adult Sexually Mature Rats Over 6 Weeks
• Method: Adult male rats of above 300 g of body weight are treated orally over 6 weeks with MENT and compounds 12 or 5 according to the invention. At the end of the test, the animals are sacrificed, and the hormonal effects of the test substances are evaluated (weight of the testes and the accessory sex glands, reduction of the gonadotropic hormones and testosterone in the plasma during the course of the test, parameters of hepatic actions: effects on HDL lipoproteins).

[3] = test system: sexually immature, castrated male rats; assay: Test (I), oral treatment over 7 days, evaluation on day 8; assay type: in vivo, rat
Method: Test (I) on Sexually Immature, Castrated Male Rats Over 8 Days
Method: Male rats weighing about 45 g of body weight are castrated and treated orally over 7 days with MENT and with compounds 12 or 18 according to the invention. On the 8th day of the test, the animals are sacrificed, and the hormonal effects of the test substances are evaluated (growth of the accessory sex glands, reduction of gonadotropic hormones in plasma, parameters of hepatic actions: effects on HDL lipoproteins).

[4] = test system: accessory sex glands (prostate); assay: Hershberger Test (comparison of m- and p-substituted compound; test not specified); assay type: in vivo, rat; conditions: m-substituted compound 12 compared to p-substituted compound 11
[5] = test system: sexually mature, castrated male rats; assay: Test (II), oral treatment over 7 days, evaluation on day 8; assay type: in vivo, rat
Method: Test (II) on Sexually Mature, Castrated Male Rats Over 8 Days
as §1

Chain of Human Carboanhydrase I (P00915 whole entry): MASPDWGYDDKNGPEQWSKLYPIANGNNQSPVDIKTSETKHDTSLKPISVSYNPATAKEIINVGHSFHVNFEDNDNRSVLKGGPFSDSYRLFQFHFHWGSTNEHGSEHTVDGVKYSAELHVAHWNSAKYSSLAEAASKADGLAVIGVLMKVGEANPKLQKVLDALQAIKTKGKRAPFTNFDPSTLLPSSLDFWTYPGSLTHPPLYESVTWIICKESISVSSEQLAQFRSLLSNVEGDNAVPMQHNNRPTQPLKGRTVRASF

Row | Compound | IC50 (Human Carboanhydrase I) [nM] | Distribution Ratio with Erythrocytes/Plasma [1] | RBA in Erythrocytes (erythrocytes) | growth of the accessory sex glands [3] | further results
1 | C[C@]12CC[C@H]3[C@@H](CCC4=CC(=O)CC[C@@]43C)[C@@H]1CC[C@@H]2OC(=O)c1ccc(S(N)(=O)=O)cc1 [Compound 1, 3-Oxoandrost-4-en-17β-yl 4′-sulfamoyl benzoate] | 370 | 9 | 48 |  | 
2 | COc1ccc(S(N)(=O)=O)cc1C(=O)O[C@H]1CC[C@H]2[C@@H]3CCC4=CC(=O)CC[C@]4(C)[C@H]3CC[C@]12C [Compound 4, 3-Oxoandrost-4-en-17β-yl 2′-methoxy-5′-sulfamoyl benzoate] |  | 2 | 0.8 |  | 
3 | C[C@]12CC[C@H]3[C@@H](CCC4=CC(=O)CC[C@@]43C)[C@@H]1CC[C@@H]2OC(=O)c1cccc(S(N)(=O)=O)c1 [Compound 5, 3-Oxoandrost-4-en-17β-yl 3′-sulfamoyl benzoate] | 880 | 2 | 1.3 |  | changes in hepatic parameters [2]: especially small changes in hepatic parameters
4 | C[C@]12CC[C@H]3[C@@H](CCC4=CC(=O)CC[C@@H]43)[C@@H]1CC[C@@H]2OC(=O)c1ccc(S(N)(=O)=O)cc1 [Compound 8, 3-Oxoestr-4-en-17β-yl 4′-sulfamoyl benzoate] |  | 7 | 24 |  | 
5 | C[C@@H]1CC2=CC(=O)CC[C@@H]2[C@H]2CC[C@]3(C)[C@@H](OC(=O)c4ccc(S(N)(=O)=O)cc4)CC[C@H]3[C@@H]21 [Compound 11, 3-Oxo-7α-methylestr-4-en-17β-yl 4′-sulfamoyl benzoate] |  |  |  |  | IC50 (Human Carboanhydrase I; human carboanhydrase I, read-out: CAI IC50): 200 to 400 nM
6 | C[C@@H]1CC2=CC(=O)CC[C@@H]2[C@H]2CC[C@]3(C)[C@@H](OC(=O)c4cccc(S(N)(=O)=O)c4)CC[C@H]3[C@@H]21 [Compound 12, 3-Oxo-7α-methylestr-4-en-17β-yl 3′-sulfamoyl benzoate] | 600 | 3 | 2.1 | strong dose-dependent effects on the growth of the accessory sex glands | antigonadotropic effects [2]: Superior antigonadotropic effects; effects on the accessory sex glands (weights of seminal vesicles and prostates) [2]: induced in a dose-dependent way an increase of the weights of the seminal vesicles and prostates beyond the level of intact controls; activity in the Hershberger Test [4]: higher activity in the Hershberger Test compared to the p-substituted compound 11; levels of MENT in the plasma ([5]; after oral administration): significantly higher levels of MENT are achieved in the plasma than after the administration of MENT itself; growth of the accessory sex glands ([5]; oral, 7 days): unexpectedly strong, dose-dependent effects on the growth of the accessory sex glands; bond strength to the erythrocytes (in words) (erythrocytes; m-substituted versus 4'-sulfamoyl benzoates): lower bond strength to the erythrocytes
7 | C[C@]12CC[C@H]3[C@@H](CCC4=CC(=O)CC[C@@]43C)[C@@H]1CC[C@@H]2OC(=O)CCc1ccc(S(N)(=O)=O)cc1 [Compound 14, 3-Oxoandrost-4-en-17β-yl 4′-sulfamoylphenylpropionate] |  | 4 | 3.4 |  | 
8 | C[C@]12CC[C@H]3[C@@H](CCC4=CC(=O)CC[C@@]43C)[C@@H]1CC[C@@H]2OC(=O)c1cc(S(N)(=O)=O)ccc1O [Compound 18, 3-Oxoandrost-4-en-17β-yl 2′-hydroxy-5′-sulfamoyl Benzoate] |  | 2 | 1.4 | strong dose-dependent effects on the growth of the accessory sex glands | 
9 | C[C@]12CC[C@@H]3c4ccc(OS(N)(=O)=O)cc4CC[C@H]3[C@@H]1CC[C@@H]2O [Estradiol-3-sulfamate, reference compound] |  | 48 | 100 |  | 
10 | C[C@@H]1CC2=CC(=O)CC[C@@H]2[C@H]2CC[C@]3(C)[C@@H](O)CC[C@H]3[C@@H]21 [MENT, 7α-methyl-19-nortestosterone, reference compound] |  |  |  | only marginal effects | effects on the accessory sex glands (weights of seminal vesicles and prostates) [2]: A corresponding effect even in the case of extremely high dosage did not occur; reduction of HDL [2]: even more effective than the substances according to the invention; reduction of HDL [3]: even more active than the substances according to the invention; growth of the accessory sex glands ([5]; oral, 7 days): only marginal effects; reduction of HDL ([5]; oral, 7 days): even more active than the substances according to the invention
